These results are taken from ChEMBL document CHEMBL1152504, “Design and synthesis of membrane fusion inhibitors against the feline immunodeficiency virus” (Bioorg Med Chem, 2009).

Activity calls are given as the source filed them. The rule behind the calls is not given here.

Test [1] is described as follows: Inhibition of Feline immunodeficiency virus Petaluma envelope glycoprotein gp40 assessed as inhibition of HR1-HR2 interaction after 1.5 hrs by ELISA. For orientation: An ELISA detects its analyte on a solid surface through an enzyme-linked reagent.
Test [2] is described as follows: Inhibition of Feline immunodeficiency virus Shizuoka envelope glycoprotein gp40 assessed as inhibition of HR1-HR2 interaction after 1.5 hrs by ELISA.
Test [3] in a line: Inhibition of Feline immunodeficiency virus UK8 envelope glycoprotein gp40 assessed as inhibition of HR1-HR2 interaction after 1.5 hrs by ELISA.
Test [4] can be described thus: Inhibition of Feline immunodeficiency virus Sendai-1 envelope glycoprotein gp40 assessed as inhibition of HR1-HR2 interaction after 1.5 hrs by ELISA.
A further test has as its system MT4. Put plainly: Inhibition of Feline immunodeficiency virus envelope glycoprotein 40-mediated cell fusion between virus-transfected feline thymic lymphoma 3201 cells and human MT4 cells at 10 uM after 7 days. Type of test: cell-based.

On to “H-GEETLKKWEEQTKKLEEKFKKIEENIKKNEEQVKKGEEQLKK-OH”, for which, in test [1], the IC50 – broadly, the concentration that inhibits the measured activity by half – is above 10000 nM.
In the case of “H-LEEWYKKTEELQKKFEEIIKKIEENNKKGEEGLKK-OH”, the IC50 in test [2] was 19.7 nM; in test [1], 12.8 nM; in test [3], 3.38 nM; in test [4] it was 2.53 nM.
In the case of “H-LEEWYKKTEELQKKFEEIIKKIEENSKKGEEGIKK-OH”, the IC50 is 203 nM in test [2], 200 nM in test [1], 443 nM in test [3] and 42.4 nM in test [4].
For “H-LGEWYNQTKDLQQKFYEIIMDIEQNNVQGKKGIQQ-OH”, the IC50 came to 6310 nM in test [2], 1260 nM in test [1], 513 nM in test [3] and 183 nM in test [4]. Moreover, in the test with MT4, the result was Active.
In the case of “H-NEELGKKYEETKKKQEEFYKKIEEIEKKNEEVKKKLEELQKK-OH”, the 50% inhibitory concentration (IC50) in test [1] stood at 169 nM.
For the compound `CC[C@H](C)[C@H](NC(=O)CNC(=O)[C@H](CCC(=O)O)NC(=O)[C@H](CCC(=O)O)NC(=O)CNC(=O)[C@H](CCCCN)NC(=O)[C@H](CCCCN)NC(=O)[C@H](CC(N)=O)NC(=O)[C@H](CC(N)=O)NC(=O)[C@H](CCC(=O)O)NC(=O)[C@H](CCC(=O)O)NC(=O)[C@@H](NC(=O)[C@H](CCCCN)NC(=O)[C@H](CCCCN)NC(=O)[C@@H](NC(=O)[C@@H](NC(=O)[C@H](CCC(=O)O)NC(=O)[C@H](CCC(=O)O)NC(=O)[C@H](Cc1ccccc1)NC(=O)[C@H](CCCCN)NC(=O)[C@H](CCCCN)NC(=O)[C@H](CCC(N)=O)NC(=O)[C@H](CC(C)C)NC(=O)[C@H](CCC(=O)O)NC(=O)[C@H](CCC(=O)O)NC(=O)[C@@H](NC(=O)[C@H](CCCCN)NC(=O)[C@H](CCCCN)NC(=O)[C@H](Cc1ccc(O)cc1)NC(=O)[C@H](Cc1c[nH]c2ccccc12)NC(=O)[C@H](CCC(=O)O)NC(=O)[C@H](CCC(=O)O)NC(=O)[C@@H](N)CC(C)C)[C@@H](C)O)[C@@H](C)CC)[C@@H](C)CC)[C@@H](C)CC)C(=O)N[C@@H](CCCCN)C(=O)N[C@@H](CCCCN)C(=O)O`, the IC50 in test [2] stood at 78.5 nM; in test [1], 51.6 nM; in test [3] it was 9.33 nM; in test [4], 8.87 nM. Besides, the result in the test on MT4 was Active.
For “H-LGEWYNQTKGLQQKFYEIIMDIEQNSVQGKKGIQQ-OH”, the IC50 was above 10000 nM in test [2], 2400 nM in test [1], above 10000 nM in test [3] and 437 nM in test [4].
As to “H-LEEWYKKTEELQKKFEEIIKKIEENNKKVEEGLKK-OH”, the IC50 in test [2] came out at 115 nM; in test [1] it was 16.6 nM; in test [3], 5.39 nM; in test [4], 22.6 nM.
Consider “H-LRDWYNNTQQLQKKFYEIIYDIEQNNVQGKQGLQQ-OH”, for which the half-inhibitory concentration (IC50) in test [2] came out at 2510 nM; in test [1], 195 nM; in test [3] it was 182 nM; in test [4] it was 37.2 nM.
For “H-LGEWYNQTKELQQKFYEIIMNIEQNNVQVKKGLQQ-OH” the same measures were 6310 nM, 708 nM, 724 nM and 646 nM.
Consider “H-WEEWDKKIEEYTKKIEELIKKSEEQQKKNEEELKK-OH”, for which the IC50 in test [1] is above 10000 nM.
